Results reported in publication PMC1079853, “Alkane-induced expression, substrate binding profile, and immunolocalization of a cytochrome P450 encoded on the nifD excision element of Anabaena 7120” (BMC Microbiology, 2005).

Target: T1, CYP110 (Nostoc sp. PCC 7120 = FACHB-418, UniProt P29980)
T1 construct: recombinant, expressed in E. coli from pUC8 vector, purified soluble fraction; about 50 kDa; U38537 is the complete nifD element carrying cyp110
T1 sequence (P29980 1-459): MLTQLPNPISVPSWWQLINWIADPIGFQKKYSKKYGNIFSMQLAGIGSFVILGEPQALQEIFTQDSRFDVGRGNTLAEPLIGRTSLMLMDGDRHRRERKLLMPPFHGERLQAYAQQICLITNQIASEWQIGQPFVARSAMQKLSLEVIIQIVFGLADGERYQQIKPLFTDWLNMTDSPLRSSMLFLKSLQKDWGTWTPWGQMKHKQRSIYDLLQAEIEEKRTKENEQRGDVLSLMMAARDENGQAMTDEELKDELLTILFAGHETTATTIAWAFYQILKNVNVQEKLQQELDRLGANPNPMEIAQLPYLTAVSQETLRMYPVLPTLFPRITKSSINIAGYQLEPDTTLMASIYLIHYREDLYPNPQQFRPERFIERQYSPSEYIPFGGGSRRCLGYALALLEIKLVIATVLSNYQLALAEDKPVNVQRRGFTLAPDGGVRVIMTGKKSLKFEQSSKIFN
Test: UV-visible spectral shift titration
Format: binding
Conditions: read-out: Ks
From the text: UV-visible spectral shift titration on CYP110

| Kd | SMILES |
| --- | --- |
| 62 µM | CC/C=C\C/C=C\C/C=C\CCCCCCCC(=O)O [9,12,15-Octadecatrienoic Acid] |
| 720 µM | CCCCCC=CCC=CCCCCCCCC(=O)O [9,12-Octadecadienoic Acid] |
| 416 µM | NCCCCCCCCCCCC(=O)O [12-Aminododecanoic Acid] |
| 41 µM | CCCCCCCCCCN [Decyl Amine] |
| 1900 µM | CCCCCCCCCCCC(=O)O [Dodecanoic Acid] |
| 12 µM | CCCCCCCCCCCCN [Dodecyl Amine] |
| 1100 µM | CCCCCCCCCCCCCCCCC(=O)O [Heptadecanoic Acid] |
| 102 µM | CCCCCCCN [Heptyl Amine] |
| 500 µM | CCCCCCCCCCCCCCCC(=O)O [Hexadecanoic Acid] |
| 320 µM | CCCCCCN [Hexyl Amine] |
| 2210 µM | CCCCCCCCCCCC(N)=O [Lauryl Amide] |
| 2560 µM | CCCCCCCCCCCC(=O)NC [N-methyl Lauryl Amide] |
| 62 µM | CCCCCCCCCN [Nonyl Amine] |
| 3100 µM | CCCCCCCCCCCCCCCCCC(=O)O [Octadecanoic Acid] |
| 81 µM | CCCCCCCCN [Ocytl Amine] |
| 210 µM | CCCCCCCCCCCCCCC(=O)O [Pentadecanoic Acid] |
| 540 µM | CCCCCN [Pentyl Amine] |
| 91 µM | CCCCCCCCCCCCCC(=O)O [Tetradecanoic Acid] |
| 850 µM | CCCCCCCCCCCCC(=O)O [Tridecanoic Acid] |

| SMILES | Kd |
| --- | --- |
| CCCCC/C=C\C/C=C\C/C=C\C/C=C\CCCC(=O)O [Arachidonic Acid] | 51 µM |
